Reference: US12667118B2, “Compositions comprising algae and methods of using same for increasing animal product production” (BLUE OCEAN BARNS, priority 2020, dated 2026)
Where two headings read alike, the source gives them in different places.

Key:
dairy cattle [1] = test: Tolerability limits: intake limits of minerals for dairy cattle; type: in vivo
dairy cattle [2] = conditions: cited from earlier work
dairy cattle [3] = test: Methane intensity versus normalized bromoform intake (Asparagopsis quantity calculation); type: in vivo; conditions: regression constant
Description: In still another embodiment, a regression constant is determined. The regression constant relates the amount of bromoform required to achieve a set percentage of methane reduction per amount of neutral detergent fiber present in the animal's diet. Thus, the algorithm comprises the steps of: i) Determining the target methane reduction percentage and subsequently the target absolute reduction (g CH4/kg milk); ii) Determining cow's NDF intake, based on dry matter intake (DMI) and NDF proportion; iii) Determining the normalized bromoform concentration required (equivalent to the desired absolute reduction divided by the regression constant, where the regression constant is the Reduction in methane intensity (g CH4/kg milk) per unit normalized bromoform intake (mg/kg of NDF); iv) Multiplying by the NDF intake to determine the required bromoform concentration (mg) and v) Dividing by the bromoform concentration in that seaweed to determine amount of seaweed required.

[4] = In vivo fate of bromoform delivered from red macroalgae feed supplement; parameters: species or system livestock
livestock rumens = test: Rumen propionate:acetate ratio and meat trans fat in livestock fed red algae; conditions: in vitro and in vivo testing
Text: It is known that bromoform is safely and usefully degraded in anaerobic environments like livestock rumens where the enzyme methyl-coenzyme M reductase is present.

[5] = dairy cattle, at the maximum allowable limit

Compound	Intake for a Cow Consuming 20.14 kg DM/day (dairy cattle [1]; bovine, in vivo) [mg/day]	Maximum Allowable Component Intake Limit per Daily kg of DM Consumption (dairy cattle [2]; bovine, in vivo) [mg/kg DMI]	Intake for a Cow Consuming 20.14 kg DM/day (dairy cattle [1]; [5]) [mg/day]	Maximum Allowable Component Intake Limit per Daily kg of DM Consumption (dairy cattle [2]; dairy cattle) [mg/kg DMI]	also measured
[B] [Boron]	3021	150	–	–	–
[K+] [Potassium]	402800	20000	–	–	–
[Mo] [Molybdenum]	101	5	–	–	–
BrC(Br)Br [bromoform]	–	–	–	–	Slope-Reduction in methane intensity (g CH4/kg milk) per normalized unit bromoform intake (mg/kg of NDF) (dairy cattle [3]): −0.049 g CH4/kg milk per mg/kg of NDF; absorption of bromoform into rumen wall or other organs [4]: not absorbed into the rumen wall, or other organs; bromoform in milk, meat or manure [4]: not found; propionate:acetate ratios in livestock rumens (livestock rumens): increases the propionate:acetate ratios
[Co] [Cobalt]	–	–	504	25	–
[Fe] [Iron]	10070	500	–	–	–
[Al] [Aluminum]	20140	1000	–	–	–
[Se] [Selenium]	–	5	101	–	–
[Mn+2] [Manganese]	–	–	40280	2000	–
[Ca+2] [Calcium]	–	–	302100	15000	–
Copper	806	40	–	–	–
Sodium	–	–	1706704	84742	–
[Zn] [Zinc]	–	–	10070	500	–
Arsenic	–	–	604	30	–
[Cr] [Chromium]	–	–	2014	100	–
[Pb] [Lead]	–	–	2014	100	–
S1SSSSSSS1 [Sulfur]	–	–	60420	3000	–
[Mg+2] [Magnesium]	120840	–	–	6000	–
Phosphorous	140980	7000	–	–	–
[Cd] [Cadmium]	–	–	201	10	–
